Key:
Hep 3B2 [1] = assay: Anti-hepatoma activity against human Hep3B cells assessed as cell growth inhibition by MTT assay; assay type: functional, cell-based
HepG2 [2] = assay: Anti-hepatoma activity against human HepG2 cells assessed as cell growth inhibition by MTT assay; assay type: functional, cell-based
HepG2 [3] = assay: Induction of autophagy in human HepG2 cells by MDC staining based flow cytometry analysis (Rvb =4.46%); assay type: functional
Hep 3B2 [4] = assay: Induction of autophagy in human Hep3B cells by MDC staining based flow cytometry analysis (Rvb =3.52%); assay type: functional

| IC50 (HepG2 [2]) | Compound | IC50 (Hep 3B2 [1]) | Activity (HepG2 [3]) | Activity (Hep 3B2 [4]) |
| --- | --- | --- | --- | --- |
| > 20 µM | C=C1C(=O)O[C@H]2CC3=C[C@@H](C[C@@](C)(O)/C=C/[C@H]12)OC3=O | > 20 µM | – | – |
| 9.75 µM | CNC(=O)c1cc(Oc2ccc(NC(=O)Nc3ccc(Cl)c(C(F)(F)F)c3)cc2)ccn1 [SORAFENIB] | 5.2 µM | 4.1% | 7.29% |
| > 20 µM | C/C=C(/C)C(=O)O[C@H]1CC2=C[C@@H](C/C(C)=C/[C@H]3OC(=O)C(CO)=C13)OC2=O | > 20 µM | – | – |
| > 20 µM | C=C(C)C(=O)O[C@H]1CC2=C[C@H](C/C(C)=C/[C@H]3OC(=O)[C@@H](C)C13)OC2=O (stereo not given in full) | > 20 µM | – | – |

— ChEMBL document CHEMBL4765305, “Elephantopinolide A-P, germacrane-type sesquiterpene lactones from Elephantopus scaber induce apoptosis, autophagy and G2/M phase arrest in hepatocellular carcinoma cells” (Eur J Med Chem, 2020)
